According to patent US20020132812A1, “Oral hypoglycaemic agents” (priority 2000, published 2002):

Key:
[1] = system: isolated perfused rat pancreas; assay: Insulin release from isolated perfused rat pancreas
Experimental: The effect of the compounds of the invention on the insulin release from isolated perfused rat pancreas can be investigated as exemplified below with the title compound of Example 2 (compound (Ex 2). In the example described, the investigation is carried out at 2.8 mM and 8.3 mM glucose.
Male Sprague Dawley rats (body weight around 300 g) were anaesthetised with a mixture of Hypnorm® (Janssen Pharma) and Dormicum® (Roche) and the pancreas was cannulated and isolated a described by Sturis et al., Am. J. Physiol. 269, E786-E792, 1995. The organ was placed at 37° C. in a humidified perfusion chamber and perfused with a […] gassed bicarbonated Krebs Ringer, 4% Dextran buffer from a pump delivering 71% of the total volume and from a pump delivering 29% volume of the same buffer with added BSA (0.2% final concentration) and glucose (2.8 mM or 8.3 mM final concentration). The 29% pump also delivered compund (Ex 2) at 10^−5 M in the interval t=20-40 min and at 10^−4 M in the interval t=60-80 min. The pancreata were acclimatised for 20 min before start of sampling at 1 fraction of ca 1900 μl/min for 100 min. Aliquots of 200 μl were frozen away at −20° C. for subsequent insulin ELISA using guinea pig anti-insulin antibodies. The results are shown in FIG. 7 and are expressed as fmol insulin released per pancreas per min. Each plot represents one pancreas, except 8.3 mM glucose alone mean of n=2. […] In the pancreas infused with 8.3 mM glucose and compound (Ex 2) there was an initial noise in the interval t=0-20 min which was due to a mechanical problem with the tubing. […] When 10^−4 M compound (Ex 2) was added at t=60 min there was a classic first-phase insulin release peaking at 3000 fmol/min, followed by second-phase release. […] We have evidence that non-reversal may be due to the low BSA concentration (0.2%) in the perfusate.
In the pancreas perfused with compound (Ex 2) at 2.8 mM glucose, the insulin secretion was only about 10% of that seen at 8.3 mM glucose (max. 250 fmol/min) with 10^−4 M compound (Ex 2) while the control pancreas secretion was flat at ca 20 fmol/min.

intact mouse islets = assay: Insulin release from intact mouse islets (ELISA); format: cell-based; settings: 100 μM compound, 60 min incubation
Experimental: Intact pancreatic islets were isolated from fed NMRI mice (15-18 g) as previously described (Fuhlendorff et al., Diabetes, Vol. 47 (3) pp. 345-351, 1998). Insulin release was measured from groups of 10 size-matched islets, cultured overnight in RPMI-1640 tissue culture medium containing 1% GlutaMAX™ (Gibco BRL),1% penicillin/streptomycin, 7.5% NaHCO3 and 10% new-born calf serum. The islets were washed for 20 minutes in Krebs Ringer Buffer consisting of 115 mM NaCl, 4.7 mM KCl, 2.6 mM CaCl2, 1.2 mM KH2PO4, 1.2 mM MgSO4, 20 mM HEPES, 2 mM glutamine, 5 mM NaHCO3, 0.2% human serum albumin and 1% penicillin/streptomycin) and 2.5 mM, 5 mM or 10 mM D-glucose. Afterwashing, the islet were incubated for one hour at +37° C. in Krebs Ringer Buffer containing the test compound at 100 μM and glucose at 2.5 mM, 5 mM or 10 mM. After the one-hour incubation, the medium was aspirated and kept at −20° C. until assayed for insulin using the following ELISA technique. Immuno 96 well paltes (MaxiSorPTM, NUNC, Denmark) were coated over night at 4° C. with a rabbit-anti-guinea pig-lgG (Dako) antibody diluted 1:1000 in 0.1 M NaHCO3 (pH 9.8). After washing 4 times in 0.15 M NaCl and 0.005% Tween-20 the plates were incubated with guinea pig-anti-insulin diluted in phosphate buffered saline (incubation buffer; pH 7.4) containing 0.1% Tween-20 and 0.5% human serum albumin over night. After washing the sambles were incubated for 1.5 h with relevant samples and peroxidase-insulin (Sigma) diluted 1:10000 in PBS-DIL. The samples we-were then washed and developed with TMBPlus-substrated as described by the manufacture (KEM EN TEC, Denmark). The amount of insulin was quantified from a standard curve after reading the samples at 450 nm.
Elevating the external glucose concentration from 2.5 mM to 5 mM was not associated with an increase in insulin release whereas a 90% stimulation was observed following application of 10 mM glucose (P<0.05; n=8).

COc1cccc(C(CC2=NCCN2)c2ccccn2)c1 (single isomer, unassigned; (-)) [compound (Ex 2), (−)-2-(2-(4,5-Dihydro-1H-imidazol-2-yl)-1-(3-methoxyphenyl)ethyl)pyridine] was tested, and the “insulin secretion, max.” value ([1]; 2.8 mM glucose, 10^-4 M compound, control pancreas ca 20 fmol/min) was 250 fmol/min, the “first-phase insulin release, peak” value ([1]; 8.3 mM glucose, 10^-4 M compound added at t=60 min, 8.3 mM glucose alone 300 up to ca 700 fmol/min) was 3000 fmol/min and the “effect on insulin secretion (in words)” value ([1]; 8.3 mM glucose, 10^-5 M compound, t=20-40 min) was “small increase in insulin secretion”. For the same molecule, the “insulin secretion at 2.8 mM glucose as share of that seen at 8.3 mM glucose” value ([1]; 10^-4 M compound) was “about 10%”, the “effect on insulin release” value (intact mouse islets; 2.5 mM glucose) was “does not affect insulin release” and the “effect on insulin release” value (intact mouse islets; 5 mM glucose) was “does not affect insulin release”. For the same molecule, the “stimulation of insulin secretion” value (intact mouse islets; 10 mM glucose, P<0.01, n=8) was 220%.
